Experimental data published in patent publication US10294229B2, “Heteroaryl substituted aminopyridine compounds” (BRISTOL-MYERS SQUIBB COMPANY, priority 2015, dated 2019).

Tests used:
[1] = system: Human whole blood stimulated with a TLR2 agonist (lipoteichoic acid), IL-6 levels; assay: IRAK4 Whole Blood Assay; assay type: cell-based; conditions: lipoteichoic acid 10 μg/mL
Summary of the method: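 IL-6 was quantified by cytometric bead assay in supernatants of human blood (ACD-A) stimulated for 5 h with lipoteichoic acid at 10 μg/mL final. Compound exposure preceded stimulation for 60 min at 37 °C, 5% CO2.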

[2] = Caco-2 Permeability Assay; assay type: in vitro ADME; conditions: human, Caco-2, test compound 3 μM
Summary of the method: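 Bidirectional permeability measured over 2 h at 37° C, compound dosed at 3 μM in the donor compartment (apical for absorptive, basolateral for secretive) with plain buffer as receiver.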

IRAK4 = IRAK4 (Homo sapiens (Human), UniProt Q9NWZ3); assay: IRAK4 Inhibition Assay; assay type: biochemical; conditions: ATP 500 μM; IRAK4 0.6 nM
Sequence of IRAK4 (Q9NWZ3 whole entry, species assumed): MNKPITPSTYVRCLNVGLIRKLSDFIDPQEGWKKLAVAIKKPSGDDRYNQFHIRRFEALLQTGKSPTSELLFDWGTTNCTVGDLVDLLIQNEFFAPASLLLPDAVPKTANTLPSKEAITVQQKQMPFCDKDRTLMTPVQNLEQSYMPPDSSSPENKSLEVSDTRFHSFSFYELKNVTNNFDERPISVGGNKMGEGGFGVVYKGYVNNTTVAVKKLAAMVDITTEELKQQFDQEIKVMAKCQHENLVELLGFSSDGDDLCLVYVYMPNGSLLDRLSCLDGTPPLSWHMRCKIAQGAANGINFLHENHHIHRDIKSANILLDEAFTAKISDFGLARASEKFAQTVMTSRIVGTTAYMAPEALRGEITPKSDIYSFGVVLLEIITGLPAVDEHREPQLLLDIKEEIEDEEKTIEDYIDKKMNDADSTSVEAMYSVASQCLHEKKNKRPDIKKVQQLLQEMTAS
Summary of the method: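 Readout: electrophoretic (LabChip) separation of fluorescent peptide substrate from phosphorylated product after EDTA quench. Reactions ran 60 min at room temperature with 0.6 nM IRAK4, 1.5 μM peptide and 500 μM ATP; inhibition referenced to no-enzyme (100%) and vehicle (0%) controls.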

Row | Structure (SMILES) | EC50 ([1]; Homo sapiens) | Papp at 2 h, 3 µM [2] | IC50 (IRAK4) | EC50 [1]
1 | CC(C)Nc1cc(-n2ncc3cc(C#N)cnc32)ncc1-c1cn(CCCCO)nn1 [Example 124, 1-(5-(1-(4-hydroxybutyl)-1H-1,2,3-triazol-4-yl)-4-(isopropylamino)pyridin-2-yl)-1H-pyrazolo[3,4-b]pyridine-5-carbonitrile] | 0.29 µM | 29 nm/s | 0.002 µM | –
2 | CC(C)Nc1cc(-n2ncc3cc(C#N)cnc32)ncc1-c1cn([C@@H](C)[C@H](C)O)nn1 (single isomer, unassigned) [Example 90] | – | 101 nm/s | 0.004 µM | 0.17 µM
3 | CCCn1cc(-c2cnc(-n3ncc4cc(C#N)c(N)nc43)cc2NC2CC2)nn1 [Example 35, 6-amino-1-(4-(cyclopropylamino)-5-(1-propyl-1H-1,2,3-triazol-4-yl)pyridin-2-yl)-1H-pyrazolo [3,4-b]pyridine-5-carbonitrile] | 0.46 µM | 237 nm/s | 0.003 µM | –
4 | CC(=O)N1CCC(n2cc(-c3cnc(-n4ncc5cc(C#N)cnc54)cc3NC(C)C)nn2)C1 (stereo not drawn) [Example 157, 1-(5-(1-(1-acetylpyrrolidin-3-yl)-1H-1,2,3-triazol-4-yl)-4-(isopropylamino)pyridin-2-yl)-1H-pyrazolo[3,4-b]pyridine-5-carbonitrile] | 0.28 µM | < 15 nm/s | 0.006 µM | –
5 | CC(C)Nc1cc(-n2ncc3cc(C#N)cnc32)ncc1-c1cn(CCC(C)(C)O)nn1 [Example 128, 1-(5-(1-(3-hydroxy-3-methylbutyl)-1H-1,2,3-triazol-4-yl)-4-(isopropylamino)pyridin-2-yl)-1H-pyrazolo[3,4-b]pyridine-5-carbonitrile] | 0.34 µM | 50 nm/s | 0.001 µM | –
6 | CCCn1cc(-c2cnc(-n3ncc4cc(C#N)cnc43)cc2NC(C)C)nn1 [Example 30, 1-(4-(isopropylamino)-5-(1-propyl-1H-1,2,3-triazol-4-yl)pyridin-2-yl)-1H-pyrazolo[3,4-b]pyridine-5-carbonitrile] | 0.16 µM | 225 nm/s | 0.004 µM | –
7 | CCC(C)(O)Cn1cc(-c2cnc(-n3ncc4cc(C#N)cnc43)cc2NC(C)C)nn1 (single isomer, unassigned) [Example 92, 1-(5-(1-(2-hydroxy-2-methylbutyl)-1H-1,2,3-triazol-4-yl)-4-(isopropylamino)pyridin-2-yl)-1H-pyrazolo[3,4-b]pyridine-5-carbonitrile] | – | 124 nm/s | 0.011 µM | 1.12 µM
8 | CC(C)Nc1cc(-n2ncc3cc(C#N)cnc32)ncc1-c1cn(CCCCF)nn1 [Example 48, 1-(5-(1-(4-fluorobutyl)-1H-1,2,3-triazol-4-yl)-4-(isopropylamino)pyridin-2-yl)-1H-pyrazolo[3,4-b]pyridine-5-carbonitrile] | 0.92 µM | 300 nm/s | 0.004 µM | –
9 | CC(=O)N1CCCC(n2cc(-c3cnc(-n4ncc5cc(C#N)cnc54)cc3NC(C)C)nn2)C1 (stereo not drawn) [Example 160, 1-(5-(1-(1-acetylpiperidin-3-yl)-1H-1,2,3-triazol-4-yl)-4-(isopropylamino)pyridin-2-yl)-1H-pyrazolo[3,4-b]pyridine-5-carbonitrile] | 0.29 µM | 18 nm/s | 0.001 µM | –
10 | CC(C)Nc1cc(-n2ncc3cc(C#N)cnc32)ncc1-c1cn(CC(C)(C)O)nn1 [Example 63, 1-(5-(1-(2-hydroxy-2-methylpropyl)-1H-1,2,3-triazol-4-yl)-4-(isopropylamino)pyridin-2-yl)-1H-pyrazolo[3,4-b]pyridine-5-carbonitrile] | 0.9 µM | 78 nm/s | 0.014 µM | –

Second part, the compound after the results:

Row | EC50 ([1]; Homo sapiens) | Papp at 2 h, 3 µM [2] | IC50 (IRAK4) | EC50 [1] | Structure (SMILES)
11 | 0.25 µM | 91 nm/s | 0.002 µM | – | CC(C)Nc1cc(-n2ncc3cc(C#N)cnc32)ncc1-c1cn([C@H]2CC[C@H](NCC(F)F)CC2)nn1 [Example 394, 1-(5-(1-((1r,4r)-4-((2,2-difluoroethyl)amino)cyclohexyl)-1H-1,2,3-triazol-4-yl)-4-(isopropylamino)pyridin-2-yl)-1H-pyrazolo[3,4-b]pyridine-5-carbonitrile]
12 | 0.29 µM | 94 nm/s | 0.001 µM | – | CCOC(=O)N[C@H]1CC[C@H](n2cc(-c3cnc(-n4ncc5cc(C#N)cnc54)cc3NC(C)C)nn2)CC1 [Example 395, ethyl ((1r,4r)-4-(4-(6-(5-cyano-1H-pyrazolo[3,4-b]pyridin-1-yl)-4-(isopropylamino)pyridin-3-yl)-1H-1,2,3-triazol-1-yl)cyclohexyl)carbamate]
13 | 0.2 µM | 17 nm/s | 0.011 µM | – | CC(C)Nc1cc(-n2ncc3cc(C#N)cnc32)ncc1-c1nnc(C(=O)N2CCOCC2)o1 [Example 433, 1-(4-(isopropylamino)-5-(5-(morpholine-4-carbonyl)-1,3,4-oxadiazol-2-yl)pyridin-2-yl)-1H-pyrazolo[3,4-b]pyridine-5-carbonitrile]
14 | 0.25 µM | 131 nm/s | 0.002 µM | – | CC(C)Nc1cc(-n2ncc3cc(C#N)cnc32)ncc1-n1cc(CCC(C)(C)OC(=O)CN(C)C)nn1 [Example 384, 4-(1-(6-(5-cyano-1H-pyrazolo[3,4-b]pyridin-1-yl)-4-(isopropylamino)pyridin-3-yl)-1H-1,2,3-triazol-4-yl)-2-methylbutan-2-yl dimethylglycinate]
15 | 0.11 µM | < 15 nm/s | 0.018 µM | – | CC(C)Nc1cc(-n2ncc3cc(C#N)cnc32)ncc1-c1cn([C@@H]2CCN(S(C)(=O)=O)C[C@@H]2O)nn1 [Example 188, 1-(5-(1-((3S,4R)-3-hydroxy-1-(methylsulfonyl)piperidin-4-yl)-1H-1,2,3-triazol-4-yl)-4-(isopropylamino)pyridin-2-yl)-1H-pyrazolo[3,4-b]pyridine-5-carbonitrile]
16 | 0.38 µM | 179 nm/s | 0.006 µM | – | COC(=O)N1CCC(c2cn(-c3cnc(-n4ncc5cc(C#N)cnc54)cc3NC(C)C)nn2)CC1 [Example 338, methyl 4-(1-(6-(5-cyano-1H-pyrazolo[3,4-b]pyridin-1-yl)-4-(isopropylamino)pyridin-3-yl)-1H-1,2,3-triazol-4-yl)piperidine-1-carboxylate]
17 | 0.33 µM | 106 nm/s | 0.002 µM | – | COC(=O)N[C@H]1CC[C@H](n2cc(-c3cnc(-n4ncc5cc(C#N)cnc54)cc3NC(C)C)nn2)CC1 [Example 393, methyl ((1r,4r)-4-(4-(6-(5-cyano-1H-pyrazolo[3,4-b]pyridin-1-yl)-4-(isopropylamino)pyridin-3-yl)-1H-1,2,3-triazol-1-yl)cyclohexyl)carbamate]
18 | 0.41 µM | < 15 nm/s | 0.003 µM | – | CC(C)(O)CCc1cn(-c2cnc(-n3ncc4cc(C#N)cnc43)cc2NC2CCOC2)nn1 [Example 365, (S)-1-(5-(4-(3-hydroxy-3-methylbutyl)-1H-1,2,3-triazol-1-yl)-4-((tetrahydrofuran-3-yl)amino)pyridin-2-yl)-1H-pyrazolo[3,4-b]pyridine-5-carbonitrile]
19 | 0.4 µM | 139 nm/s | 0.004 µM | – | CC(C)Nc1cc(-n2ncc3cc(C#N)cnc32)ncc1-c1cc(C2CCCCN2)no1 [Example 412, (S)-1-(4-(isopropylamino)-5-(3-(piperidin-2-yl)isoxazol-5-yl)pyridin-2-yl)-1H-pyrazolo[3,4-b]pyridine-5-carbonitrile]
20 | 0.27 µM | 186 nm/s | 0.003 µM | – | CC(C)Nc1cc(-n2ncc3cc(C#N)cnc32)ncc1-n1cc(CCN2CCOCC2)nn1 [Example 349, 1-(4-(isopropylamino)-5-(4-(2-morpholinoethyl)-1H-1,2,3-triazol-1-yl)pyridin-2-yl)-1H-pyrazolo[3,4-b]pyridine-5-carbonitrile]
21 | 0.07 µM | < 15 nm/s | 0.002 µM | – | CC(C)Nc1cc(-n2ncc3cc(C#N)cnc32)ncc1-n1cc(C2CCNCC2)nn1 [Example 334, 1-(4-(isopropylamino)-5-(4-(piperidin-4-yl)-1H-1,2,3-triazol-1-yl)pyridin-2-yl)-1H-pyrazolo[3,4-b]pyridine-5-carbonitrile]
22 | 0.29 µM | 250 nm/s | 0.001 µM | – | CC(=O)N1CCC[C@@H](c2cc(-c3cnc(-n4ncc5cc(C#N)cnc54)cc3NC(C)C)on2)C1 [Example 407, (R)-1-(5-(3-(1-acetylpiperidin-3-yl)isoxazol-5-yl)-4-(isopropylamino)pyridin-2-yl)-1H-pyrazolo[3,4-b]pyridine-5-carbonitrile]
23 | 0.13 µM | < 15 nm/s | 0.001 µM | – | CC(C)Nc1cc(-n2ncc3cc(C#N)c(N)nc32)ncc1-n1cc(CCC(C)(C)O)nn1 [Example 371, 6-amino-1-(5-(4-(3-hydroxy-3-methylbutyl)-1H-1,2,3-triazol-1-yl)-4-(isopropylamino)pyridin-2-yl)-1H-pyrazolo[3,4-b]pyridine-5-carbonitrile]
24 | 0.74 µM | 57 nm/s | 0.003 µM | – | CC(C)Nc1cc(-n2ncc3cc(C#N)cnc32)ncc1-c1cn(CCC(C)(C)O)cn1 [Example 240, 1-(5-(1-(3-hydroxy-3-methylbutyl)-1H-imidazol-4-yl)-4-(isopropylamino)pyridin-2-yl)-1H-pyrazolo[3,4-b]pyridine-5-carbonitrile]
